# Results from patent publication US20170368082A1, “FORMULATIONS OF BRINCIDOFOVIR” (priority 2016, published 2017).
# Entries after “also recorded” stand apart in the source; their conditions may differ.
# Tests used:
# human whole blood = assay: Hemolytic potential, cyanmethemoglobin method, human whole blood; format: cell-based; conditions: for Mean HgB Concentration: interference control, Phase 2
# Description: Each concentration of test item for the rat was mixed separately in a 1:4 ratio with rat whole blood while each concentration of test item for the human was mixed separately in a 1:4 ratio with human whole blood. These samples plus control samples [vehicle control (vehicle+whole blood, 1 for rat and 1 for humans), positive control (1% Saponin+whole blood), untreated whole blood control and negative control (saline+whole blood) were analyzed for hemolysis (supernatant hemoglobin concentration).
# (§1) The rat and human whole blood samples were incubated in test or control items at 37±1° C. for 20 minutes and then immediately (within 2 minutes) centrifuged at 3500±100 rpm (2740 g) at room temperature for 5-10 minutes. The supernatant was extracted and subjected to a hemoglobin analysis using the cyanmethemoglobin method employed on the Siemens Advia 120 hematology analyzer. If the test item has a potential for causing hemolysis, then hemoglobin released from lysed red blood cells into the plasma supernatant can be quantified via the reaction of heme iron in solution being oxidized from a ferrous to a ferric state in the presence of potassium cyanide. The reaction results in the formation of methemoglobin, which then combines with cyanide to form a stable cyanmethemoglobin. When measured spectrophotometrically at 546 nm the absorbance of cyanmethemoglobin follows Beer's Law and is directly proportional to the concentration of hemoglobin released into solution.
# as §1, with “Without wishing to be bound by theory, if” for “If”
# [1] = Preclinical infusion system assembly (rats) compatibility; format: physicochemical; conditions: 0.2 mg/mL (Test #1)
# Description: The compatibility of the following brincidofovir formulations with an infusion system assembly for dosing of rats (consisting of a syringe, tether, catheter and syringe pump) was tested
# a.) 0.2 mg/mL brincidofovir, 4 mM sodium phosphate, pH˜8.0, approx. 4.90% dextrose; b.) 1.5 mg/mL brincidofovir, 30 mM sodium phosphate, pH-8.0, approx. 4.25% dextrose.
# Both solutions were prepared via dilution of the developed brincidofovir formulation (10 mg/mL brincidofovir, 200 mM sodium phosphate, pH=8.0) with a 5% dextrose solution. The testing procedure can be summarized as follows: • 1. The appearance, pH, and c(BCV) of the bulk testing solutions (0.2 mg/mL BCV, 4 mM sodium phosphate, pH-8.0, approx. 4.90% dextrose, and 1.5 mg/mL BCV, 30 mM sodium phosphate, pH˜8.0, approx. 4.25% dextrose were assessed pre-contact. • 2. Approximately 5 mL of the testing solution was drawn into a syringe which was then connected to the assembled infusion system (Vascular Access Harness (VAH) tether kit, the VAH port for rat jacket, and catheter). • 3. The infusion system was manually filled with the testing solution. Approximately 200 μL of the testing solution were pushed out of the infusion system and collected as an end-of-line sample (to) for the assessments of appearance and c(BCV). • 4. The syringe of the testing infusion system was mounted onto the syringe pump, and a flow rate was set to a flow of 1.2 mL/h ([…]) for a total dispensing volume of 2.4 mL (120 min). • 5. The entire flow-through was collected over the course of the experiment. At the respective time points (t10min, t105 min), end-of-line samples (approx. 200 μL) were collected for analysis. • 6. The pH of the bulk flow-through was measured at the end of the experiment (t120 min), since the volume of samples acquired from previous time points (200 μL) was too small for a standard pH measurement.
smiles,measurement,setting,value
CCCCCCCCCCCCCCCCOCCCOP(=O)(O)CO[C@H](CO)Cn1ccc(N)nc1=O [Brincidofovir],Hemocompatibility / hemolytic potential,"human whole blood; 0.2, 0.5 and 1.6 mg/mL",no hemolytic potential in human whole blood; also recorded: no effect from brincidofovir on hemocompatibility
same,Mean HgB Concentration,human whole blood; Tube 2A: Test Item (0.2 mg/mL) + saline,0.0 g/dL
same,Mean HgB Concentration,human whole blood; Tube 2B: Test Item (0.5 mg/mL) + saline,0.0 g/dL
same,Mean HgB Concentration,human whole blood; Tube 2C: Test Item (1.6 mg/mL) + saline,0.0 g/dL
same,Appearance,[1]; pre contact (bulk solution),"Clear, colorless"
same,Measured pH,[1]; pre contact (bulk solution),8.0
same,Observed c(BCV),[1]; pre contact (bulk solution),0.21 mg/mL
same,Appearance,[1]; t0,"Clear, colorless"
same,Observed c(BCV),[1]; t0,0.19 mg/mL
same,Appearance,[1]; t10 min,"Clear, colorless"
same,Observed c(BCV),[1]; t10 min,0.16 mg/mL
same,Appearance,[1]; t105 min,"Clear, colorless"
same,Observed c(BCV),[1]; t105 min,0.20 mg/mL
same,Appearance,[1]; t120 min (bulk solution),"Clear, colorless"
same,Measured pH,[1]; t120 min (bulk solution),8.0
